Where a name gives a salt, the structure may show the parent alone. A value given as a limit tells only on which side of the number the result lay.

Sequence of recombinant human HPK1 (Q92918 whole entry): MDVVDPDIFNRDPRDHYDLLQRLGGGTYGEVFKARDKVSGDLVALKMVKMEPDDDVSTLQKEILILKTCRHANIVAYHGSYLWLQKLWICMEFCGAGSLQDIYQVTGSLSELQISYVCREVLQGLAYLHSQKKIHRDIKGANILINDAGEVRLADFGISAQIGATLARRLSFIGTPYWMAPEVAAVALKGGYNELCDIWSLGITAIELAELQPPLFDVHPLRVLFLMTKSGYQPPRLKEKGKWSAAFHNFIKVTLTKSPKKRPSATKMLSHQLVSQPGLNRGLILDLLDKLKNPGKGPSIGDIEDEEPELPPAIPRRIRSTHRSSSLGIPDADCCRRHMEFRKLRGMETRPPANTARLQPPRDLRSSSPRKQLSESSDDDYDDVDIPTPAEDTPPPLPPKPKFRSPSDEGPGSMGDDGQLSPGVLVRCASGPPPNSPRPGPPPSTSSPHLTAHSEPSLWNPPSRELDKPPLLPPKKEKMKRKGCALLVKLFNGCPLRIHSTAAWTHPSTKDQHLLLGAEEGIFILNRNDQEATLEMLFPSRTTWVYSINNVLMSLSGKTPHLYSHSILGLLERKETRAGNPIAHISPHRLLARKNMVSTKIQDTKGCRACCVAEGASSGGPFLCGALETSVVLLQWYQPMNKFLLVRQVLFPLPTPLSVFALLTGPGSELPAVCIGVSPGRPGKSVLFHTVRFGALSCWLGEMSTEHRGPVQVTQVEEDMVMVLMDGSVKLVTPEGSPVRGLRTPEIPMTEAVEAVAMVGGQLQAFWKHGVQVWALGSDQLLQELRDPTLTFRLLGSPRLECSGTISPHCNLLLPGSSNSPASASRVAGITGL

This experiment addresses recombinant human HPK1 (Homo sapiens (Human), UniProt Q92918). Put plainly: HPK1 kinase assay (Promega ADP-Glo kinase assay). Type of experiment: biochemical. Conditions: In vitro activity against HPK1, 5 ng HPK1, MBP substrate, ATP 25 μM, 30° C. 40 minutes. Put shortly:
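IC50 was derived from percent inhibition across a range of compound concentrations. Recombinant human HPK1 (5 ng) phosphorylated MBP for 40 min at 30 °C in Tris buffer pH 7.5 with 20 mM MgCl2, with ATP added as a 25 µM solution and 0.5% DMSO. ADP formed was read by ADP-Glo luminescence.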
Consider `CC(C)Nc1c(F)c(Cl)c(-c2cn3cc(NC(=O)CN(C)C)nc3cn2)c2cn[nH]c12` [Example 103, N-(6-(5-chloro-6-fluoro-7-(isopropylamino)-1H-indazol-4-yl)imidazo[1,2-a]pyrazin-2-yl)-2-(dimethylamino)acetamide], for which the half-inhibitory concentration (IC50) is below 100 nM. Regarding `CC(C)Nc1c(F)c(C(F)(F)F)c(-c2cn3cc(NC(=O)[C@@H]4C[C@@H]4CO)nc3cn2)c2cn[nH]c12` [Example 104, (1R,2S)-N-(6-(6-fluoro-7-(isopropylamino)-5-(trifluoromethyl)-1H-indazol-4-yl)imidazo[1,2-a]pyrazin-2-yl)-2-(hydroxymethyl)cyclopropane-1-carboxamide], the 50% inhibitory concentration (IC50) was below 100 nM. With `CSC(C)C(=O)Nc1cn2cc(-c3c(Cl)c(F)c(NC(C)C)c4[nH]ncc34)ncc2n1` (stereo not drawn) [Example 105, N-(6-(5-chloro-6-fluoro-7-(isopropylamino)-1H-indazol-4-yl)imidazo[1,2-a]pyrazin-2-yl)-2-(methylthio)propanamide], the 50% inhibitory concentration (IC50) fell in the range of 101 to 500 nM. The value for `CC(C)Nc1c(F)c(Cl)c(-c2cn3cc(NC(=O)[C@@H](C)N(C)C)nc3cn2)c2cn[nH]c12` [Example 106, (R)-N-(6-(5-chloro-6-fluoro-7-(isopropylamino)-1H-indazol-4-yl)imidazo[1,2-a]pyrazin-2-yl)-2-(dimethylamino)propanamide] was 501 to 1000 nM; that for `Cc1c(F)c(C(NC(=O)C(F)(F)F)C2CC2)c2[nH]ncc2c1-c1cn2cc(NC(=O)[C@@H]3C[C@@H]3F)nc2cn1` (stereo partly drawn) [Example 107, (1S,2S)-N-(6-(7-(cyclopropyl(2,2,2-trifluoroacetamido)methyl)-6-fluoro-5-methyl-1H-indazol-4-yl)imidazo[1,2-a]pyrazin-2-yl)-2-fluorocyclopropane-1-carboxamide] was below 100 nM; that for `CC(C)Nc1c(F)c(Cl)c(-c2cn3cc(NC(=O)C4CCN4)nc3cn2)c2cn[nH]c12` (stereo not drawn) [Example 108, N-(6-(5-chloro-6-fluoro-7-(isopropylamino)-1H-indazol-4-yl)imidazo[1,2-a]pyrazin-2-yl)azetidine-2-carboxamide] was 101 to 500 nM.

`COCC(=O)Nc1cn2cc(-c3c(Cl)c(F)c(NC(C)C)c4[nH]ncc34)ncc2n1` [Example 109, N-(6-(5-chloro-6-fluoro-7-(isopropylamino)-1H-indazol-4-yl)imidazo[1,2-a]pyrazin-2-yl)-2-methoxyacetamide]: the concentration for half-maximal inhibition (IC50) was below 100 nM. The value for `CCCC(=O)Nc1cn2cc(-c3c(Cl)c(F)c(NC(C)C)c4[nH]ncc34)ncc2n1` [Example 110, N-(6-(5-chloro-6-fluoro-7-(isopropylamino)-1H-indazol-4-yl)imidazo[1,2-a]pyrazin-2-yl)butyramide] was below 100 nM. In the case of `CC(C)Nc1c(F)c(Cl)c(-c2cn3cc(NC(=O)C4CCCO4)nc3cn2)c2cn[nH]c12` (stereo not drawn) [Example 111, N-(6-(5-chloro-6-fluoro-7-(isopropylamino)-1H-indazol-4-yl)imidazo[1,2-a]pyrazin-2-yl)tetrahydrofuran-2-carboxamide], the IC50 lay in the range of 101 to 500 nM.

Consider `CC(C)Nc1c(F)c(Cl)c(-c2cn3cc(NC=O)nc3cn2)c2cn[nH]c12` [Example 112, N-(6-(5-chloro-6-fluoro-7-(isopropylamino)-1H-indazol-4-yl)imidazo[1,2-a]pyrazin-2-yl)formamide], for which the IC50 is below 100 nM. `COC(=O)Nc1cn2cc(-c3c(Cl)c(F)c(NC(C)C)c4[nH]ncc34)ncc2n1` [Example 113, methyl (6-(5-chloro-6-fluoro-7-(isopropylamino)-1H-indazol-4-yl)imidazo[1,2-a]pyrazin-2-yl)carbamate]: the IC50 was below 100 nM. As for `CCOC(=O)Nc1cn2cc(-c3c(Cl)c(F)c(NC(C)C)c4[nH]ncc34)ncc2n1` [Example 114, ethyl (6-(5-chloro-6-fluoro-7-(isopropylamino)-1H-indazol-4-yl)imidazo[1,2-a]pyrazin-2-yl)carbamate], the IC50 is below 100 nM. For the compound `O=CNC(c1c(F)c(C(F)(F)F)c(-c2cn3cc(NC(=O)[C@@H]4C[C@@H]4F)nc3cn2)c2cn[nH]c12)C1CC1` (stereo partly drawn) [Example 115, (1S,2S)-N-(6-(7-(cyclopropyl(formamido)methyl)-6-fluoro-5-(trifluoromethyl)-1H-indazol-4-yl)imidazo[1,2-a]pyrazin-2-yl)-2-fluorocyclopropane-1-carboxamide], the IC50 was below 100 nM. The value for `CC(C)Nc1c(F)c(Cl)c(-c2cn3cc(NC(=O)CC4COC4)nc3cn2)c2cn[nH]c12` [Example 116, N-(6-(5-chloro-6-fluoro-7-(isopropylamino)-1H-indazol-4-yl)imidazo[1,2-a]pyrazin-2-yl)-2-(oxetan-3-yl)acetamide] was below 100 nM.

In the case of `CCCCC(=O)Nc1cn2cc(-c3c(Cl)c(F)c(NC(C)C)c4[nH]ncc34)ncc2n1` [Example 117, N-(6-(5-chloro-6-fluoro-7-(isopropylamino)-1H-indazol-4-yl)imidazo[1,2-a]pyrazin-2-yl)pentanamide], the IC50 is below 100 nM. The value for `O=C(Nc1cn2cc(-c3c(C(F)(F)F)c(F)c(C(O)C4CC4)c4[nH]ncc34)ncc2n1)[C@@H]1C[C@@H]1CO` (stereo partly drawn) [Example 118, (1R,2S)-N-(6-(7-(cyclopropyl(hydroxy)methyl)-6-fluoro-5-(trifluoromethyl)-1H-indazol-4-yl)imidazo[1,2-a]pyrazin-2-yl)-2-(hydroxymethyl)cyclopropane-1-carboxamide] was below 100 nM. `CCNC(=O)Nc1cn2cc(-c3c(Cl)c(F)c(NC(C)C)c4[nH]ncc34)ncc2n1` [Example 119, 1-(6-(5-chloro-6-fluoro-7-(isopropylamino)-1H-indazol-4-yl)imidazo[1,2-a]pyrazin-2-yl)-3-ethylurea]: the IC50 was below 100 nM. Consider `CC(C)Nc1c(F)c(Cl)c(-c2cn3cc(NC(=O)N4CCNCC4)nc3cn2)c2cn[nH]c12` [Example 120, N-(6-(5-chloro-6-fluoro-7-(isopropylamino)-1H-indazol-4-yl)imidazo[1,2-a]pyrazin-2-yl)piperazine-1-carboxamide], for which the IC50 is below 100 nM. The same measure for `CNC(=O)Nc1cn2cc(-c3c(Cl)c(F)c(NC(C)C)c4[nH]ncc34)ncc2n1` [Example 121, 1-(6-(5-chloro-6-fluoro-7-(isopropylamino)-1H-indazol-4-yl)imidazo[1,2-a]pyrazin-2-yl)-3-methylurea]: 501 to 1000 nM; for `CC(C)Nc1c(F)c(Cl)c(-c2cn3cc(NC(=O)C(F)F)nc3cn2)c2cn[nH]c12` [Example 122, N-(6-(5-chloro-6-fluoro-7-(isopropylamino)-1H-indazol-4-yl)imidazo[1,2-a]pyrazin-2-yl)-2,2-difluoroacetamide]: below 100 nM; for `CC(C)Nc1c(F)c(Cl)c(-c2cn3cc(NC(=O)C4CCN(C)CC4)nc3cn2)c2cn[nH]c12` [Example 123, N-(6-(5-chloro-6-fluoro-7-(isopropylamino)-1H-indazol-4-yl)imidazo[1,2-a]pyrazin-2-yl)-1-methylpiperidine-4-carboxamide]: below 100 nM. `CC(C)Nc1c(F)c(Cl)c(-c2cn3cc(NC(=O)N4CCCC4)nc3cn2)c2cn[nH]c12` [Example 124, N-(6-(5-chloro-6-fluoro-7-(isopropylamino)-1H-indazol-4-yl)imidazo[1,2-a]pyrazin-2-yl)pyrrolidine-1-carboxamide]: the half-inhibitory concentration (IC50) is below 100 nM. For the compound `CC(C)Nc1c(F)c(Cl)c(-c2cn3cc(NC(=O)C4CCOC4)nc3cn2)c2cn[nH]c12` (stereo not drawn) [Example 125, N-(6-(5-chloro-6-fluoro-7-(isopropylamino)-1H-indazol-4-yl)imidazo[1,2-a]pyrazin-2-yl)tetrahydrofuran-3-carboxamide], the IC50 was below 100 nM.

As to `CC(C)Nc1c(F)c(Cl)c(-c2cn3cc(NC(=O)OC4CCC4)nc3cn2)c2cn[nH]c12` [Example 126, cyclobutyl (6-(5-chloro-6-fluoro-7-(isopropylamino)-1H-indazol-4-yl)imidazo[1,2-a]pyrazin-2-yl)carbamate formate], the IC50 is below 100 nM. Turning to `COc1c(F)c(C(O)C2CC2)c2[nH]ncc2c1-c1cn2cc(NC(=O)[C@@H]3C[C@@H]3F)nc2cn1` (stereo partly drawn) [Example 127, (1S,2S)-N-(6-(7-(cyclopropyl(hydroxy)methyl)-6-fluoro-5-methoxy-1H-indazol-4-yl)imidazo[1,2-a]pyrazin-2-yl)-2-fluorocyclopropane-1-carboxamide], the concentration for half-maximal inhibition (IC50) is below 100 nM. Take `COc1c(F)c(C(C)O)c2[nH]ncc2c1-c1cn2cc(NC(=O)[C@@H]3C[C@@H]3F)nc2cn1` (stereo partly drawn) [Example 128, (1S,2S)-2-fluoro-N-(6-(6-fluoro-7-(1-hydroxyethyl)-5-methoxy-1H-indazol-4-yl)imidazo[1,2-a]pyrazin-2-yl)cyclopropane-1-carboxamide]: the half-inhibitory concentration (IC50) is below 100 nM.

For the compound `CC(C)Nc1c(F)c(Cl)c(-c2cn3cc(NC(=O)CO)nc3cn2)c2cn[nH]c12` [Example 129, N-(6-(5-chloro-6-fluoro-7-(isopropylamino)-1H-indazol-4-yl)imidazo[1,2-a]pyrazin-2-yl)-2-hydroxyacetamide], the IC50 is below 100 nM. The value for `CC(C)Nc1c(F)c(Cl)c(-c2cn3cc(NC(=O)CCO)nc3cn2)c2cn[nH]c12` [Example 130, N-(6-(5-chloro-6-fluoro-7-(isopropylamino)-1H-indazol-4-yl)imidazo[1,2-a]pyrazin-2-yl)-3-hydroxypropanamide] was below 100 nM; that for `CC(C)Nc1c(F)c(Cl)c(-c2cn3cc(NC(=O)C4COC4)nc3cn2)c2cn[nH]c12` [Example 131, N-(6-(5-chloro-6-fluoro-7-(isopropylamino)-1H-indazol-4-yl)imidazo[1,2-a]pyrazin-2-yl)oxetane-3-carboxamide] was below 100 nM; that for `C[C@H](N[S@@+]([O-])C(C)(C)C)c1c(F)c(Cl)c(-c2cn3cc(NC(=O)[C@@H]4C[C@@H]4F)nc3cn2)c2cn[nH]c12` [Example 132, (1S,2S)-N-(6-(7-((S)-1-(((S)-tert-butylsulfinyl)amino)ethyl)-5-chloro-6-fluoro-1H-indazol-4-yl)imidazo[1,2-a]pyrazin-2-yl)-2-fluorocyclopropane-1-carboxamide] was below 100 nM.

The IC50 is the concentration that inhibits the measured activity by half.

Values taken from patent publication US20250197406A1, “INDAZOLES AS HEMATOPOIETIC PROGENITOR KINASE 1 (HPK1) INHIBITORS AND METHODS FOR USING SAME” (1ST Biotherapeutics, Inc., priority 2022, published 2025).
